Results on seven compounds are retold here after PubChem BioAssay (NCI).

Holding throughout (assay): growth of human tumour cells (NCI), 48 h
Experiment [1] concerns MCF7 breast.
Experiment [2] deals with RXF 393 renal.
Experiment [3] relates to SK-MEL-5 melanoma.
The test system of experiment [4] is HS 578T breast.
The test system of experiment [5] is SW-620 colon.
The test system of experiment [6] is HCT-116 colon.
The subject of experiment [7] is A498 renal.
For experiment [8], the system named is ACHN renal.
The subject of experiment [9] is SK-MEL-2 melanoma.
For experiment [10], the system named is SK-OV-3 ovarian.

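Growth conditions: 96-well plates. Treatment: test compound, 48 hours, 5 concentrations. Analysis: linear interpolation between bracketing concentrations; unreached endpoints set to highest concentration. GI50 = concentration required for 50% inhibition of growth. TGI: concentration producing complete growth inhibition.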

`O=C(c1ccccc1)C1OC1C(=O)c1ccccc1` (stereo not given): the GI50 in [1] was 2.34 µM; in experiment [2] it was 2.37 µM; in experiment [3], 3.46 µM; in experiment [4], 3.01 µM; in [5], 3.11 µM; in experiment [6], 2.09 µM. In addition, the GI50 in experiment [7] was 19.7 µM; in experiment [8], 3.67 µM; in [9], 2.66 µM; in experiment [10], 7.98 µM. Besides, the TGI was 14.7 µM in experiment [1]; 10.2 µM in experiment [2]; 14.3 µM in experiment [3]; over 100 µM in experiment [4]; 16.1 µM in [5]; 11.4 µM in experiment [6]. Besides, the TGI is over 100 µM in experiment [7], 15.7 µM in [8], 9.53 µM in [9] and over 100 µM in experiment [10].

For `CCn1c(SCC(=O)Nc2cc(C(F)(F)F)ccc2Cl)nc2ccccc2c1=O`, the GI50 was 94.4 µM in experiment [1]; 15.6 µM in [2]; 25.1 µM in experiment [3]; 13 µM in [4]; 53.4 µM in experiment [5]; 17.4 µM in [6]. Also, the GI50 was 16.4 µM in [7], 22.6 µM in [8], 24.6 µM in [9] and 14.6 µM in experiment [10]. In addition, the TGI in [1] is over 100 µM; in experiment [2] it was 66.9 µM; in experiment [3], over 100 µM; in [4], 48.7 µM; in experiment [5], over 100 µM; in [6], over 100 µM. Besides, the TGI was 59.2 µM in experiment [7], over 100 µM in [8], 72.3 µM in experiment [9] and 30.9 µM in [10].

Consider `CCCS(=O)(=O)Nc1cccc(Nc2ncnc3cc(NC(=O)CCl)ccc23)c1Cl`, for which the GI50 in experiment [1] is 1.05 µM; in experiment [2], 3.26 µM; in experiment [3], 3.4 µM; in experiment [4], 3.32 µM; in experiment [5], 1.23 µM; in experiment [6] it was 0.968 µM. Also, the GI50 is 5.47 µM in [7], 3.44 µM in experiment [8], 3.58 µM in experiment [9] and 4 µM in [10]. Besides, the TGI worked out at 5.92 µM in experiment [1]; 7.13 µM in [2]; 7.14 µM in experiment [3]; 17 µM in experiment [4]; 4.16 µM in experiment [5]; 4.03 µM in [6]. The TGI in experiment [7] worked out at 11 µM; in experiment [8] it was 7.23 µM; in experiment [9], 8.92 µM; in experiment [10], 8.16 µM.

On to `COc1ccc(C2CC(c3ccc(OC)cc3O)=NN2c2ccc(S(N)(=O)=O)cc2)cc1` (stereo not given), for which the GI50 in experiment [1] was 4.11 µM; in [2] it was 25.6 µM; in experiment [3] it was 14.9 µM; in experiment [4], 8.22 µM; in experiment [5], 16 µM; in [6], 4.47 µM. The GI50 is 13.1 µM in experiment [7], 5.86 µM in [8], 17.1 µM in [9] and 26.1 µM in experiment [10]. Also, the TGI in [1] is over 100 µM; in experiment [2], over 100 µM; in [3], over 100 µM; in [4] it was 98.9 µM; in experiment [5], over 100 µM; in [6], 69.3 µM. Moreover, the TGI in experiment [7] was 80.2 µM; in [8] it was over 100 µM; in experiment [9], 85.9 µM; in [10], over 100 µM.

`O=C(O)CN1C(=O)CN=C(c2ccccn2)c2cc(Cl)ccc21`: the TGI in experiment [1], in [2], in [3], in experiment [4], in [5] and in experiment [6] was over 100 µM each time. Moreover, the TGI in [7], in experiment [8], in experiment [9] and in [10] was over 100 µM in each case.

Consider `O=C1/C(=C/c2ccc(F)cc2)CN(C(=O)C(Cl)Cl)C/C1=C\c1ccc(F)cc1`, for which the GI50 in experiment [1] was 0.112 µM; in experiment [2], 0.445 µM; in [3], 0.366 µM; in experiment [4] it was 0.325 µM; in experiment [5], 0.0365 µM; in [6], 0.0673 µM. The GI50 in experiment [7] is 0.404 µM; in experiment [8], 0.24 µM; in experiment [9], 0.94 µM; in [10], 0.884 µM. For the same compound, the TGI was 1.09 µM in [1]; 0.968 µM in experiment [2]; 1.01 µM in experiment [3]; 1.37 µM in experiment [4]; 0.119 µM in [5]; 0.215 µM in experiment [6]. Also, the TGI amounted to 1.54 µM in experiment [7], 0.603 µM in experiment [8], 2.9 µM in [9] and 2.2 µM in experiment [10].

Regarding `CCOC(=O)c1c2c(n3ccc(NC(=O)CCN4CCCCC4)cc13)C(=O)c1ncccc1C2=O`, the GI50 in experiment [1] was under 0.01 µM; in experiment [2] it was 0.256 µM; in [3] it was 0.541 µM; in [4], 0.351 µM; in experiment [5], 0.0269 µM; in experiment [6], 0.106 µM. Also, the GI50 is 0.806 µM in experiment [7], under 0.01 µM in experiment [8], 3.99 µM in [9] and 0.0953 µM in experiment [10]. In addition, the TGI in [1] was found to be 1.95 µM; in experiment [2], 2.4 µM; in experiment [3], 1.98 µM; in [4], 6.57 µM; in experiment [5] it was 2.38 µM; in experiment [6], 2.21 µM. For the same compound, the TGI was 29 µM in experiment [7], 1.51 µM in experiment [8], 23.8 µM in experiment [9] and 18.7 µM in experiment [10].
